According to publication PMC6122928 (The Journal of General Physiology, 2018):
Each block holds one molecule with its values, some of them ahead of it.

How the values were obtained:
[1] = target: T1, xTMEM16A (Xenopus laevis, UniProt B5SVV6); experiment: TEVC in axolotl oocytes, current evoked by uncaging IP3; type: cell-based
T1 sequence (B5SVV6 1-979): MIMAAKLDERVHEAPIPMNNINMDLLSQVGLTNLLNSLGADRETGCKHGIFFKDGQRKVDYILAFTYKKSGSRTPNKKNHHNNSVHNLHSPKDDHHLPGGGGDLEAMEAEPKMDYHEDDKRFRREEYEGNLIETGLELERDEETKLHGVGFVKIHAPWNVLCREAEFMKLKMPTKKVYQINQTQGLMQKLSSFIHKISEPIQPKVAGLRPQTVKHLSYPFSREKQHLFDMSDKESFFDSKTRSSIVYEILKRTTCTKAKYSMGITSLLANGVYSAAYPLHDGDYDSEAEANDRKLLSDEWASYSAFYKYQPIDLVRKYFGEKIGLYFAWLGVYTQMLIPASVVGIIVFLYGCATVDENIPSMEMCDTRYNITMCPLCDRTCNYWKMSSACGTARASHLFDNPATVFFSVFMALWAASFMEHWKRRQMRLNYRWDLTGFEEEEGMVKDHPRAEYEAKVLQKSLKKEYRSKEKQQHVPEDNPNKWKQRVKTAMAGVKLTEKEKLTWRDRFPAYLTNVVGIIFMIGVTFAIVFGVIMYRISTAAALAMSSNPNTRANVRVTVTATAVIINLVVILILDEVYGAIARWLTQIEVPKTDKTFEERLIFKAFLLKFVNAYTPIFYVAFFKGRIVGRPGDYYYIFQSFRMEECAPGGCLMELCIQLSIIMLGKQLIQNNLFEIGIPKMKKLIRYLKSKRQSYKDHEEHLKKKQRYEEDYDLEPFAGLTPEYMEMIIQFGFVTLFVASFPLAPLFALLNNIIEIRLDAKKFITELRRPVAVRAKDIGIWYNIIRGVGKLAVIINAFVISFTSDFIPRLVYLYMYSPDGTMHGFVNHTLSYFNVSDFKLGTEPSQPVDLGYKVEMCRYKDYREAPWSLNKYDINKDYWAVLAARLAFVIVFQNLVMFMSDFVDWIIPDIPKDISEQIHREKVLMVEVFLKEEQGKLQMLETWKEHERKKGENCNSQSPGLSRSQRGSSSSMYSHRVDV

[2] = target: T1, xTMEM16A; experiment: as above; type: cell-based; settings: 7.5 µM; otherwise same; printed as almost 50%

- inhibition at 1 µM ([1]; read-out: % inhibition at 1 μM): ~80%
SMILES: COc1ccccc1C=NNC(=O)COc1ccc(Cl)cc1C [Ani9, 2-(4-chloro-2-methylphenoxy)-N-[(2-methoxyphenyl)methylideneamino]-acetamide]

- inhibition at 7.5 µM ([1]; read-out: % inhibition at 7.5 μM): ~50%
SMILES: O=S(=O)(O)c1cc(N=C=S)ccc1/C=C/c1ccc(N=C=S)cc1S(=O)(=O)O [DIDS]

- inhibition at 10 µM ([1]; read-out: % inhibition at 10 μM): 72 ± 3%
SMILES: COc1cc(Nc2ccc([N+](=O)[O-])cc2C(=O)O)cc2ccccc12 [MONNA, N-((4-methoxy)-2-naphthyl)-5-nitroanthranilic acid]

SMILES: CC(C)(C)C1CCc2c(sc(NC(=O)c3ccco3)c2C(=O)O)C1 (stereo not shown) [CaCCinh-A01, 6-(1,1-dimethylethyl)-2-[(2-furanylcarbonyl)amino]-4,5,6,7-tetrahydrobenzo[b]thiophene-3-carboxylic acid]
- % inhibition [2]: whereas T16Ainh-A01 and CaCCinh-A01 were much less effective
